Laboratory results taken from paper PMC4008379, “Bioenergetics and Gene Silencing Approaches for Unraveling Nucleotide Recognition by the Human EIF2C2/Ago2 PAZ Domain” (PLoS ONE, 2014).
Like-named read-outs stand apart in the source and are kept apart here.

Columns and labels:
Assay type in all cases: binding
[1] = biological target: T1, EIF2C2/Ago2 PAZ domain (Ago2PAZ) (Homo sapiens, UniProt Q9UKV8); assay: ITC displacement (UMP titrated into AMP-saturated protein); conditions: 25 mM potassium phosphate pH 7; 12°C; competition with UMP; unreliable (estimated, direct titration ND)
T1 construct: PAZ domain, residues 226-379, hexahistidine tag (pQE30, BamHI/HindIII), tag removal not mentioned; expressed in E. coli; Talon and Sephacryl S200HR
Source text: ITC displacement (UMP titrated into AMP-saturated protein) on EIF2C2/Ago2 PAZ domain (Ago2PAZ)

[2] = biological target: T1, EIF2C2/Ago2 PAZ domain (Ago2PAZ); assay: isothermal titration calorimetry
[3] = biological target: T1, EIF2C2/Ago2 PAZ domain (Ago2PAZ); assay: ITC displacement (UMP titrated into dAMP-saturated protein); conditions: 25 mM potassium phosphate pH 7; 12°C; competition with UMP; unreliable (estimated, direct titration ND)
Source text: ITC displacement (UMP titrated into dAMP-saturated protein) on EIF2C2/Ago2 PAZ domain (Ago2PAZ)

[4] = biological target: T1, EIF2C2/Ago2 PAZ domain (Ago2PAZ); assay: ITC displacement (UMP titrated into dCMP-saturated protein); conditions: 25 mM potassium phosphate pH 7; 12°C; competition with UMP; unreliable (estimated, direct titration ND)
Source text: ITC displacement (UMP titrated into dCMP-saturated protein) on EIF2C2/Ago2 PAZ domain (Ago2PAZ)

T1 sequence (Q9UKV8 227-379): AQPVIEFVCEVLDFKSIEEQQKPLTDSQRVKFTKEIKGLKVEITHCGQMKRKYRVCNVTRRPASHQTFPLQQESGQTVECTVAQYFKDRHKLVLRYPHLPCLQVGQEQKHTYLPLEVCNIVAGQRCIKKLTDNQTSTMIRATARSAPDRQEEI

Nc1ncnc2c1ncn2[C@@H]1O[C@H](COP(=O)(O)O)[C@@H](O)[C@H]1O [AMP]
Estimated KB / M^-1 [1]: 143 M⁻¹

Nc1ccn([C@@H]2O[C@H](COP(=O)(O)O)[C@@H](O)[C@H]2O)c(=O)n1 [CMP]
Kd ([2]; read-out: Kd /): 40 µM

Nc1nc2c(ncn2[C@@H]2O[C@H](COP(=O)(O)O)[C@@H](O)[C@H]2O)c(=O)[nH]1 [GMP]
Kd ([2]; read-out: Kd /): 22 µM

Cc1cn([C@H]2C[C@H](O)[C@@H](COP(=O)(O)O)O2)c(=O)[nH]c1=O [TMP]
Kd ([2]; read-out: Kd /): 232 µM

O=c1ccn([C@@H]2O[C@H](COP(=O)(O)O)[C@@H](O)[C@H]2O)c(=O)[nH]1 [UMP]
Kd ([2]; 25 mM potassium phosphate pH 7, one-set-of-sites model, fitted n 2.2, read-out: Kd /): 15 µM

Cc1cn([C@@H]2O[C@H](COP(=O)(O)O)[C@@H](O)[C@H]2O)c(=O)[nH]c1=O [compound 2, 5-Methyluridine-5′-O-monophosphate]
Kd ([2]; read-out: Ka (converted)): 58.8 µM

Nc1ncnc2c1ncn2[C@H]1C[C@H](O)[C@@H](COP(=O)(O)O)O1 [dAMP]
Estimated KB / M^-1 [3]: 72 M⁻¹

Nc1ccn([C@H]2C[C@H](O)[C@@H](COP(=O)(O)O)O2)c(=O)n1 [dCMP]
Estimated KB / M^-1 [4]: 155 M⁻¹

Nc1nc2c(ncn2[C@H]2C[C@H](O)[C@@H](COP(=O)(O)O)O2)c(=O)[nH]1 [dGMP]
Kd ([2]; read-out: Kd /): 40 µM
